One data set deals with CLL. The conditions noted are these: cited from earlier work.
The next data set has as its system B cell receptor. Description: Whole blood B cell receptor signalling, CD69 on CD19+ B cells. To be noted: 2 h incubation, anti-human IgD 18 h. Type of data set: cell-based. How it is done: Blood from four healthy donors was incubated for 2 hours with the compounds shown over a concentration range, and then stimulated with anti-human IgD [10 μg/mL] for 18 hours. The mean fluorescent intensity (MFI) of CD69 (and CD86, data not shown) on gated CD19+ B cells was measured by flow cytometry. MFI values were normalized so that 100% represents CD69 level in stimulated cells without inhibitor, while 0% represents the unstimulated/no drug condition. […]

Data set [1] relates to human platelet-mediated thrombosis. To be noted: mouse, in vivo. How it is done:
Injury to the vessel wall of arterioles ([…] diameter) was performed using a pulsed nitrogen dye laser (440 nm, Photonic Instruments) applied through a 20× water-immersion Olympus objective (LUMPlanF1, 0.5 numerical aperature (NA)) of a Zeiss Axiotech vario microscope. […] The extent of thrombus formation was assessed for 2 minutes after injury and the area (μm^2) of coverage determined (Image IQ, Andor Technology).
The BTK inhibitor-treated human platelets were fluorescently labeled and infused continuously through a catheter inserted into the femoral artery.

The subject of the next data set is CD4+ T cells. Description: Th17 and Treg development from CD4+ T cells. Type of data set: cell-based. How it is done:
Enriched CD4^+ T cells are plated on 24-well culture dishes that have been precoated 2 hr with 250 μL anti-TCRβ (0.5 μg/mL) plus anti-CD28 (5 μg/mL) at 37° C. in PBS. The cells are then supplemented with media containing BTK inhibitors along with the skewing cytokines as indicated in the following. The Th17 and Treg cultures are grown for 4 days before analysis. The cells are maintained for an additional 3 days with skewing cytokines (Th17; 20 ng/mL IL-6, 0.5 ng/mL TGF-β, 5 μg/mL IL-4, 5 μg/mL IFN-γ and Treg; 0.5 ng/mL TGF-β, 5 μg/mL IL-4, 5 μg/mL IFN-γ) and are supplemented with IL2 as a growth factor.

The subject of another data set is Raji cells. Description: Rituximab ADCC chromium release assay. Type of data set: cell-based, human. To be noted: 1 μM. From the text: Cell culture conditions were as follows. […] The HER18 cells were maintained in DEM supplemented with fetal bovine serum, penicillin-streptomycin and. Prior to assay, HER18 cells were harvested using trypsin-EDTA, washed with phosphate-buffered saline (PBS) containing 5% serum and viable cells were counted. For culture of primary target cells, peripheral blood from CLL patients was subject to density centrifugation to obtain peripheral blood mononuclear cells (PBMC). Cell preparations were washed and then subject to positive selection of CD5+CD19^+ CLL cells using magnetic beads (MACS, Miltenyi Biotech). Cell preparations were used fresh after selection. NK cells from CLL patients and healthy volunteers were enriched from peripheral blood collected in sodium citrate anti-coagulant tubes and then subject to density centrifugation. Removal of non NK cells was performed using negative selection by MACS separation. Freshly isolated NK cells were washed three times, enumerated, and then used immediately for ADCC assays.
ADCC assays were performed as follows. Briefly, target cells (Raji or primary CLL) were labeled by incubation at 37° C. with 100 μCi ^51Cr for 4 hours prior to co-culture with NK cells. Cells were washed, enumerated, and then added in triplicate to prepared 96-well plates containing treated NK cells at an effector:target (E:T) ratio of 25:1. […] The effect of NK cell natural cytotoxicity was assessed in wells containing no rituximab. Cultures were incubated at 37° C. for 4 hours, and then centrifuged. Supernatants were harvested and ^51Cr release was measured by liquid scintillation counting. All experiments were performed in triplicate.

Data set [2] deals with GPVI platelet aggregation. As to the kind of experiment: GPVI platelet aggregation (convulxin-induced). In kind it is cell-based, human. The protocol: GPVI platelet aggregation was measured for Formula (II) and Formula (X) (ibrutinib). Blood was obtained from untreated humans, and platelets were purified from […] by centrifugation. Cells were resuspended to a final concentration of […] in buffer containing 145 mmol/L NaCl, 10 mmol/L HEPES, 0.5 mmol/L Na2HPO4, 5 mmol/L KCl, 2 mmol/L MgCl2, 1 mmol/L CaCl2, and 0.1% glucose, at pH 7.4. Stock solutions of Convulxin (CVX) GPVI were prepared on the day of experimentation and added to platelet suspensions 5 minutes (37° C., 1200 rpm) before the induction of aggregation. Aggregation was assessed with a Chronolog Lumi-Aggregometer (model 540 VS; Chronolog, Havertown, Pa.) and permitted to proceed for 6 minutes after the addition of agonist. The results are reported as maximum percent change in light transmittance from baseline with platelet buffer used as a reference.
In FIG. 23, the results of CVX-induced (250 ng/mL) human platelet aggregation results before and 15 minutes after administration of the BTK inhibitors to 6 healthy individuals are shown.

In the next data set the test system is NK cells. As to the kind of experiment: Antibody-dependent NK cell degranulation (CD107a flow cytometry). In kind it is cell-based, human. To be noted: DHL-4 target cells.
Data set [3] relates to CD8+ T cells. Description: Cytotoxic T cell (CTL) assay. The conditions noted are these: 500 nM. In kind it is cell-based. How it is done: CD8^+ T cells have at least two primary effector functions: (1) produce large amounts of IFN-γ (which activates macrophages), and (2) cytolytic activity. […] The targets were B lymphoblasts from lipopolysaccharide (LPS) treated cultures. The assay was performed by incubating different ratios of effectors:targets for 4 hours.

The next data set has as its system CLL, MCL, NHL patients. The conditions noted are these: monotherapy, dose levels through 840 mg; cited from earlier work.
The test system of data set [4] is CD8+ T cells. As to the kind of experiment: CD8+ T cell viability. Type of data set: cell-based. The conditions noted are these: 4 days culture. The protocol: Total T cells were plated on anti-TCR and anti-CD28 coated wells in the presence of both BTK inhibitors. Neutral culture conditions were used that will not polarize T cells to a helper lineage. The cells are grown for 4 days and are then stained with anti-CD4, anti-CD8 and LIVE/DEAD reagent to determine if the drugs have selective effects on either the CD4^+ or CD8^+ cells. Statistical significance was calculated using the Mann Whitney T-test. […]

[5] abbreviates: Phase 1 portion, relapsed/refractory CLL (n=13).

On to “obinutuzumab: humanized monoclonal antibody directed against CD20, type II glycoengineered”, for which the response rate with CLL (Phase 1, previously treated CLL, monotherapy) is on record as 62%. Moreover, in the data set with CLL (setting [5]), the “infusion related reactions, Grade 3” value is 15% and the “patients with all grade AE (infusion related reactions)” value is 100%. In the data set on CLL (Phase 2 portion), the “IRR cases developing symptoms of hypotension” value is 60%, the “hypotension cases that were Grade 3 reactions” value is given as 25% and the “patients who developed IRR” value is 95%.
For orientation: EC50 means the concentration that produces a half-maximal response. Read a high EC50 as lower potency in that assay. With `C=CC(=O)Nc1cccc(Nc2nc(Nc3ccc(OCCOC)cc3)ncc2F)c1` [CC-292, N-(3-((5-fluoro-2-((4-(2-methoxyethoxy)phenyl)amino)pyrimidin-4-yl)amino)phenyl)acrylamide], in the data set with B cell receptor, it took 121 nM to reach a half-maximal effect (EC50). Besides, the “effect on thrombus formation” value in [1] is on record as “interfere with thrombus formation”.
As usually defined, the IC50 is the point on the concentration scale where inhibition reaches its midpoint. Regarding `C=CC(=O)N1CCC[C@@H](n2nc(-c3ccc(Oc4ccccc4)cc3)c3c(N)ncnc32)C1` [ibrutinib, 1-[(3R)-3-[4-amino-3-(4-phenoxyphenyl)-1H-pyrazolo[3,4-d]pyrimidin-1-yl]piperidin-1-yl]prop-2-en-1-one, reference compound], the “Th17 and Treg development” value in the data set with CD4+ T cells is “a profound inhibition of Th17 cells and an increase in Treg development”. Moreover, a half-maximal response in the data set with B cell receptor (EC50) required 6.1 nM. Also, the “rituximab ADCC, NK cell activity” value in the data set with Raji cells (FIG. 31) is given as “completely inhibited ADCC”. Also, in the data set with Raji cells (healthy donor NK cells), the “antibody-dependent lysis of rituximab-coated Raji cells” value was “strongly inhibited the antibody-dependent lysis of target cells”. Further, in [1], the “effect on thrombus formation” value was “interfere with thrombus formation”. Moreover, the GPVI platelet aggregation entry in data set [2] (FIG. 22 and FIG. 23) is recorded as “significantly inhibits GPVI platelet aggregation”. Further, the IC50 in data set [2] (Homo sapiens, Platelet, FIG. 22) was 130 nM. Further, the “reduction of rituximab-stimulated NK cell degranulation” value in the data set with NK cells is given as approximately 50%. Also, in the data set with CD8+ T cells [3], the “CD8+ T cell function as % cytotoxicity” value is “affects CD8^+ T cell function” and the “CD8+ T cell function as IFN-γ levels” value is on record as “significant loss of function”. Besides, in the data set with CLL, MCL, NHL patients, the “maximum tolerated dose (MTD)” value is given as “No maximum tolerated dose (MTD) was apparent”. The “CD8+ T cell viability” value in the data set with CD8+ T cells [4] is given as “strong, negative effect”.

These data come from patent US20180369244A1, “BTK Inhibitors to Treat Solid Tumors Through Modulation of the Tumor Microenvironment” (Acerta Pharma B.V., priority 2014, published 2018).
